Assay results taken from US8461083B2, “Herbicidal compounds” (Syngenta Limited, priority 2008, dated 2013).

Experiments:
[1] = system: Echinochloa crus-galli (ECHCG); experiment: Pre-emergence herbicidal glasshouse test; type: in vivo; conditions: pre-emergence (sprayed after one day cultivation), evaluated after 13 days, 100=total damage to plant, 0=no damage to plant; for pest or weed control at 1000 g/ha: Echinochloa crus-galli, 312 h, read-out: PRE Application ECHCG, damage to plant; for PRE Application ECHCG, damage to plant: 1000 g/ha
How it was run: (§1)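 Damage was rated visually 13 days after treatment on a 0–100 scale, 100 meaning total damage. Pot-grown plants received a 1000 g/ha spray in acetone/water (50:50) containing 0.5% Tween 20, either one day after sowing or after eight days of growth.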

Setaria faberi (SETFA) [2] = experiment: Pre-emergence herbicidal glasshouse test; type: in vivo; conditions: pre-emergence (sprayed after one day cultivation), evaluated after 13 days, 100=total damage to plant, 0=no damage to plant; for pest or weed control at 1000 g/ha: Setaria faberi, 312 h, read-out: PRE Application SETFA, damage to plant; for PRE Application SETFA, damage to plant: 1000 g/ha
How it was run: as §1

Solanum nigrum (SOLNI) [3] = experiment: Pre-emergence herbicidal glasshouse test; type: in vivo; conditions: pre-emergence (sprayed after one day cultivation), evaluated after 13 days, 100=total damage to plant, 0=no damage to plant; for pest or weed control at 1000 g/ha: Solanum nigrum, 312 h, read-out: PRE Application SOLNI, damage to plant; for PRE Application SOLNI, damage to plant: 1000 g/ha
How it was run: as §1

[4] = system: Alopecurus myosuroides (ALOMY); experiment: Pre-emergence herbicidal glasshouse test; type: in vivo; conditions: pre-emergence (sprayed after one day cultivation), evaluated after 13 days, 100=total damage to plant, 0=no damage to plant; for pest or weed control at 1000 g/ha: Alopecurus myosuroides, 312 h, read-out: PRE Application ALOMY, damage to plant; for PRE Application ALOMY, damage to plant: 1000 g/ha
How it was run: as §1

[5] = system: Echinochloa crus-galli (ECHCG); experiment: Post-emergence herbicidal glasshouse test; type: in vivo; conditions: post-emergence (sprayed after 8 days cultivation), evaluated after 13 days, 100=total damage to plant, 0=no damage to plant; for pest or weed control at 1000 g/ha: Echinochloa crus-galli, 312 h, read-out: POST Application ECHCG, damage to plant; for POST Application ECHCG, damage to plant: 1000 g/ha
How it was run: as §1

[6] = system: Amaranthus retoflexus (AMARE); experiment: Post-emergence herbicidal glasshouse test; type: in vivo; conditions: post-emergence (sprayed after 8 days cultivation), evaluated after 13 days, 100=total damage to plant, 0=no damage to plant; for pest or weed control at 1000 g/ha: Amaranthus retroflexus, 312 h, read-out: POST Application AMARE, damage to plant; for POST Application AMARE, damage to plant: 1000 g/ha
How it was run: as §1

Setaria faberi (SETFA) [7] = experiment: Post-emergence herbicidal glasshouse test; type: in vivo; conditions: post-emergence (sprayed after 8 days cultivation), evaluated after 13 days, 100=total damage to plant, 0=no damage to plant; for pest or weed control at 1000 g/ha: Setaria faberi, 312 h, read-out: POST Application SETFA, damage to plant; for POST Application SETFA, damage to plant: 1000 g/ha
How it was run: as §1

Solanum nigrum (SOLNI) [8] = experiment: Post-emergence herbicidal glasshouse test; type: in vivo; conditions: post-emergence (sprayed after 8 days cultivation), evaluated after 13 days, 100=total damage to plant, 0=no damage to plant; for pest or weed control at 1000 g/ha: Solanum nigrum, 312 h, read-out: POST Application SOLNI, damage to plant; for POST Application SOLNI, damage to plant: 1000 g/ha
How it was run: as §1

[9] = system: Alopecurus myosuroides (ALOMY); experiment: Post-emergence herbicidal glasshouse test; type: in vivo; conditions: post-emergence (sprayed after 8 days cultivation), evaluated after 13 days, 100=total damage to plant, 0=no damage to plant; for pest or weed control at 1000 g/ha: Alopecurus myosuroides, 312 h, read-out: POST Application ALOMY, damage to plant; for POST Application ALOMY, damage to plant: 1000 g/ha
How it was run: as §1

[10] = system: Amaranthus retoflexus (AMARE); experiment: Pre-emergence herbicidal glasshouse test; type: in vivo; conditions: pre-emergence (sprayed after one day cultivation), evaluated after 13 days, 100=total damage to plant, 0=no damage to plant; for PRE Application AMARE, damage to plant: 1000 g/ha
How it was run: as §1

Row | SMILES | PRE Application ECHCG, damage to plant [1] | PRE Application AMARE, damage to plant [10] | PRE Application SETFA, damage to plant (Setaria faberi (SETFA) [2]) | PRE Application SOLNI, damage to plant (Solanum nigrum (SOLNI) [3]) | PRE Application ALOMY, damage to plant [4] | POST Application ECHCG, damage to plant [5] | POST Application AMARE, damage to plant [6] | POST Application SETFA, damage to plant (Setaria faberi (SETFA) [7]) | POST Application SOLNI, damage to plant (Solanum nigrum (SOLNI) [8]) | POST Application ALOMY, damage to plant [9] | further results
1 | COCC(F)(F)c1nc2nc(C)c(F)cc2cc1C(=O)C1C(=O)C2CCC(C2)C1=O (centres unmarked) [Compound 3.13, 3-[6-fluoro-2-(2-methoxy-1,1-difluoroethyl)-7-methyl [1,8]-naphthyridine-3-carbonyl]-bicyclo[3.2.1]octane-2,4-dione] | – | – | – | – | – | – | – | – | – | – | pest or weed control at 1000 g/ha [1]: 100%; pest or weed control at 1000 g/ha (Setaria faberi (SETFA) [2]): 80%; pest or weed control at 1000 g/ha (Solanum nigrum (SOLNI) [3]): 80%; pest or weed control at 1000 g/ha [4]: 10%; melting point: 177 to 180 °C; pest or weed control at 1000 g/ha [5]: 80%; pest or weed control at 1000 g/ha [6]: 70%; pest or weed control at 1000 g/ha (Setaria faberi (SETFA) [7]): 80%; pest or weed control at 1000 g/ha (Solanum nigrum (SOLNI) [8]): 70%; pest or weed control at 1000 g/ha [9]: 40%
2 | CC(C)c1nc2nc(C(F)(F)F)c(C(=O)C3C(=O)CCCC3=O)cc2cc1F [Compound 1.75, 2-[6-fluoro-7-methylethyl-2-trifluoromethyl-[1,8]-naphthyridine-3-carbony]-cyclohexane-1,3-dione] | – | – | – | – | – | – | – | – | – | – | pest or weed control at 1000 g/ha [1]: 90%; pest or weed control at 1000 g/ha ([10]; Amaranthus retroflexus, 312 h, read-out: PRE Application AMARE, damage to plant): 80%; pest or weed control at 1000 g/ha (Setaria faberi (SETFA) [2]): 90%; pest or weed control at 1000 g/ha (Solanum nigrum (SOLNI) [3]): 90%; pest or weed control at 1000 g/ha [4]: 80%; pest or weed control at 1000 g/ha [5]: 90%; pest or weed control at 1000 g/ha [6]: 80%; pest or weed control at 1000 g/ha (Setaria faberi (SETFA) [7]): 90%; pest or weed control at 1000 g/ha (Solanum nigrum (SOLNI) [8]): 90%; pest or weed control at 1000 g/ha [9]: 80%
3 | COCc1nc2ncc(F)cc2cc1C(=O)C1C(=O)CCCC1=O [Compound 1.74, 2-[6-fluoro-2-methoxymethyl-[1,8]-naphthyridine-3-carbony]-cyclohexane-1,3-dione] | 100 | 100 | 100 | 100 | 70 | 80 | 90 | 80 | 80 | 40 | –
4 | C=CCn1c(=O)ccc2cc(C(=O)C3C(=O)CCCC3=O)c(C(F)(F)F)nc21 [Compound 2.14, 2-{8-allyl-7-oxo-7,8-dihydro-2-trifluoromethyl-[1,8]-naphthyridine-3-carbony}-cyclohexane-1,3-dione] | 100 | 60 | 80 | 90 | 40 | 90 | 70 | 90 | 90 | 80 | –
5 | O=C1CCCC(=O)C1C(=O)c1cc2cc(F)c(NC3CC3)nc2nc1C(F)(F)F [Compound 1.92, 2-[7-(cyclopropylamino)-6-fluoro-2-trifluoromethyl-[1,8]-naphthyridine-3-carbony]-cyclohexane-1,3-dione] | 100 | 100 | 100 | 100 | 60 | 80 | 100 | 80 | 80 | 80 | –
6 | O=C1CCCC(=O)C1C(=O)c1cc2ccc(=O)n(CC3CC3)c2nc1C(F)(F)F [Compound 2.9, 2-{8-(cyclopropylmethyl)-7-oxo-7,8-dihydro-2-trifluoromethyl-[1,8]-naphthyridine-3-carbony}-cyclohexane-1,3-dione] | 100 | 60 | 90 | 90 | 60 | 90 | 100 | 90 | 90 | 90 | –
7 | CC(F)(F)c1ccc2cc(C(=O)C3C(=O)CCCC3=O)c(C(F)(F)F)nc2n1 [Compound 1.36, 2-[7-(1,1-difluoroethyl)-2-trifluoromethyl-[1,8]-naphthyridine-3-carbony]-cyclohexane-1,3-dione] | 90 | 100 | 100 | 100 | 70 | 90 | 100 | 90 | 100 | 90 | –
8 | C/C=C/c1nc2nc(C(F)(F)F)c(C(=O)C3C(=O)CCCC3=O)cc2cc1F [Compound 1.72, 2-(6-fluoro-7-[(E)(prop-1-enyl)]-2-trifluoromethyl-[1,8]-naphthyridine-3-carbony)-cyclohexane-1,3-dione] | 90 | 60 | 90 | 90 | 30 | 70 | 70 | 80 | 60 | 50 | –
